Test results reported in patent US20080009437A1, “Pharmaceutical Compositions and Method for Treating Dry Eye” (priority 2006, published 2008).
Where “and” joins values, the source holds several entries; their conditions need not be identical. Identical values can stand only once. Entries after “also recorded” stand apart in the source; their conditions may differ.

Key:
[1] = tested on: rabbit eye (anterior chamber paracentesis); assay: Pupillary diameter measurement, rabbit paracentesis model; assay type: in vivo; conditions: group mean, n=8 eyes
Method: (§1) Each rabbit was placed in a restraint device and tagged with the alphanumeric code. The formulations were instilled (50 μl) into the conjunctival sac of both eyes 180, 120, 90 and 30 min before the first paracentesis; then 15, 30, 90 min after the first paracentesis. To perform the first paracentesis the animals were anaesthetized by intraveneous injection of 5 mg/kg Zoletil® (Virbac; 2.5 mg/kg tiletamine HCl and 2.5 mg/kg zolazepam HCl) and one drop of local anesthetic (Novesina®, Novartis) was administered to the eye. Anterior chamber paracentesis was performed with a 26 G needle attached to a tuberculin syringe; the needle was introduced into the anterior chamber through the cornea, taking care not to damage the tissues. Two hours after the first paracentesis, the animals were sacrificed with 0.4 ml Tanax® (Intervet International B. V.) and the second paracentesis was performed. About 100 μl of aqueous humor were removed at the second paracentesis. Aqueous humor was immediately split in four aliquots and stored at −80° C. until analysis. Then both eyes were enucleated and the iris-ciliary body was carefully excised, placed in polypropylene tubes, and stored at −80° C. until analysis.
The pupillary diameter of both eyes was measured with a Castroviejo caliper 180 min and 5 min before the first paracentesis and 5 min before the second paracentesis.
(§2) Pupillary diameter, PGE2, protein, PMN, and MPO were expressed as mean±SEM. Statistical analysis was performed using one way ANOVA followed by a Newman-Keuls post hoc test. Clinical score was expressed as % of eyes and the statistical analysis was performed using Kruskal-Wallis followed by a Dunn post hoc test. P<0.05 was considered statistically significant in both cases. Prism 4 software (GraphPad Software, Inc.) was used for the analysis and graphs.

[2] = tested on: leukocytes (PMN) in aqueous humor; assay: Leukocytes (PMN) measurement in aqueous humor; assay type: in vivo, Rabbit; conditions: second paracentesis; for PMN (number/μl) in aqueous humor, raw data: individual eye sample; for PMN in aqueous humor, Mean (number/μl): group mean
Method: as §1
For the determination of the number of leukocytes we used a haemocytometer (Improved Neubauer Chamber; Brigth-line, Hausser Scientific) and a Polyvar 2 microscope (Reichert-Jung).
as §2

[3] = tested on: rabbit paracentesis model; assay: Rabbit paracentesis model, overall anti-inflammatory activity; assay type: in vivo; conditions: 0.1%, 0.5% and 1% topical formulations; preliminary conclusions; listed as BOL-303242-X
Source text: Inflammatory processes are multidimensional in origin, and are characterized by complex cellular and molecular events involving numerous components all of which have not been identified. Prostaglandins are among these mediators and play an important role in certain forms of ocular inflammation. Paracentesis of the anterior chamber in the rabbit eye induces inflammatory reaction due to the disruption of the blood-aqueous barrier (“BAB”), which is mediated, at least in part, by prostaglandin E2 [References 1-3 below]. Intraocular or topical administration of PGE2 disrupts the BAB. [Reference 4, below] The treatment schedule adopted in this study was similar to the clinical NSAIDs (Ocufen) treatment schedule used by surgeons for patients before cataract surgery.
Each rabbit was placed in a restraint device and tagged with the alphanumeric code. The formulations were instilled (50 μl) into the conjunctival sac of both eyes 180, 120, 90 and 30 min before the first paracentesis; then 15, 30, 90 min after the first paracentesis. To perform the first paracentesis the animals were anaesthetized by intraveneous injection of 5 mg/kg Zoletil® (Virbac; 2.5 mg/kg tiletamine HCl and 2.5 mg/kg zolazepam HCl) and one drop of local anesthetic (Novesina®, Novartis) was administered to the eye. […]

[4] = tested on: PGE2 in the aqueous humor; assay: Prostaglandin E2 (PGE2) measurement in aqueous humor; assay type: in vivo, Rabbit; conditions: individual eye sample, second paracentesis

| SMILES | Mean (mm) Δ(T3-T1) pupillary diameter ([1]; 0.1% topical formulation) | Mean (mm) Δ(T3-T1) pupillary diameter ([1]; 0.5% topical formulation) | Mean (mm) Δ(T3-T1) pupillary diameter ([1]; 1% topical formulation) | PMN (number/μl) in aqueous humor, raw data ([2]; 0.1% topical formulation) | PMN (number/μl) in aqueous humor, raw data ([2]; 0.5% topical formulation) | PMN (number/μl) in aqueous humor, raw data ([2]; 1% topical formulation) | Anti-inflammatory activity in rabbit paracentesis model (conclusion) [3] | PGE2 (ng/ml) in aqueous humor, raw data ([4]; 0.1% topical formulation) | PGE2 (ng/ml) in aqueous humor, raw data ([4]; 0.5% topical formulation) | PGE2 (ng/ml) in aqueous humor, raw data ([4]; 1% topical formulation) | PMN in aqueous humor, Mean (number/μl) ([2]; 0.1% topical formulation) | Mean (mm) Δ(T3-T1) pupillary diameter ([1]; 0.03% topical formulation) | PMN in aqueous humor, Mean (number/μl) ([2]; 0.03% topical formulation) | PMN (number/μl) in aqueous humor, raw data ([2]; 0.03% topical formulation) | PGE2 (ng/ml) in aqueous humor, raw data ([4]; 0.03% topical formulation) |
| --- | --- | --- | --- | --- | --- | --- | --- | --- | --- | --- | --- | --- | --- | --- | --- |
| Cc1ccc2c(NCC(O)(CC(C)(C)c3cc(F)cc4c3OCC4)C(F)(F)F)cccc2n1 (stereo not drawn) [BOL] | −1.1 mm | −1.0 mm | −0.9 mm | 20 number/μl (4×) and 40 number/μl and 50 number/μl | 40 number/μl (2×) and 20 number/μl (3×) and 10 number/μl (3×) | 30 number/μl (3×) and 20 number/μl (3×) and 40 number/μl (2×) | active in this model; also recorded: as effective an anti-inflammatory drug as some of the commonly accepted prior-art steroids or NSAID | 0.70 ng/mL | 0.53 ng/mL and 0.75 ng/mL and 0.80 ng/mL | 0.50 ng/mL | – | – | – | – | – |
| C[C@@H]1C[C@H]2[C@@H]3CCC4=CC(=O)C=C[C@]4(C)[C@@]3(F)[C@@H](O)C[C@]2(C)[C@@]1(O)C(=O)CO [Dex, dexamethasone] | −0.8 mm | – | – | 20 number/μl (3×) and 50 number/μl and 40 number/μl and 30 number/μl | – | – | – | 2.10 ng/mL and 1.30 ng/mL | – | – | 30.000 number/μl | – | – | – | – |
| CC(C(=O)O)c1ccc(-c2ccccc2)c(F)c1 (stereo not drawn) [F, flurbiprofen] | – | – | – | – | – | – | – | – | – | – | – | −0.9 mm | 30.000 number/μl | 50 number/μl and 40 number/μl (2×) and 20 number/μl (2×) and 10 number/μl and 30 number/μl | 0.75 ng/mL and 0.85 ng/mL and 0.93 ng/mL and 0.61 ng/mL |
| CCOC(=O)O[C@]1(C(=O)OCCl)CC[C@H]2[C@@H]3CCC4=CC(=O)C=C[C@]4(C)[C@H]3[C@@H](O)C[C@@]21C [LE, loteprednol etabonate] | – | −0.9 mm | – | – | 40 number/μl (2×) and 20 number/μl (3×) and 30 number/μl | – | – | – | ^2N/D^ and 0.23 ng/ml and 0.68 ng/ml and 1.10 ng/ml | – | – | – | – | – | – |
